Where two headings read alike, the source gives them in different places.
Columns and labels:
[1] = target: T1, IL-17A/F (Homo sapiens, UniProt Q16552+Q96PD4); experiment: IL-17A/F HEK-Blue Cell Assay; assay type: cell-based; conditions: HEK-Blue IL-17 reporter cells, IL-17A/F stimulation, 20 hours, SEAP readout; for IC50: read-out: IL17AF HEK Blue pIC50 (converted)
T1 sequence (Q16552 24-155): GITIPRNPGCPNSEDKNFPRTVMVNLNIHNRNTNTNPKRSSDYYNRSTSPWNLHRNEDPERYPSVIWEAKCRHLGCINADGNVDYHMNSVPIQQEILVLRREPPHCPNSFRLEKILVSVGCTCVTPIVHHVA
T1 sequence (Q96PD4 31-163): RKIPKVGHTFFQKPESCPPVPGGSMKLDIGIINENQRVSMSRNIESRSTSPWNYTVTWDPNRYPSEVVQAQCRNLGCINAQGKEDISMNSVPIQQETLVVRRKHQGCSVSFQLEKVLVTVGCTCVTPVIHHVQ
Description: (§1) The HEK-Blue IL-17 reporter cell line (Fisher #NC1408637) was used for cell-based IL-17A/F inhibition assays. Cells were grown and prepared for assays according to the manufacturer's instructions. This cell line consists of HEK 293 cells that were designed to expressed IL-17RA, IL-17R^C, and the ActI adapter molecule, the combination of which, when stimulated by IL-17A/A activates a NFκB promoter and drives expression of a recombinant Secreted Alkaline Phosphatase (SEAP) geneprotein. Media from the cells is then added to a development reagent (Quanti-Blue Substrate, Fisher #NC9711613), and read at A630.
(§2) Compounds were titrated in DMSO and added to the cells immediately before adding IL-17A/A (Custom from R&D systems, untagged IL-17A/F+BSA as a carrier protein). The cells, compound, and IL-17A/A were then incubated for 20 hours before media was removed for SEAP analysis. The resulting inhibition curve was then analyzed using a Dotmatics screening protocol, and IC50 values were determined using a 4-parameter nonlinear fit. DMSO was added to a universal final concentration of 0.1% to optimize background.

[2] = target: T2, IL-17A/A (Homo sapiens, UniProt Q16552); experiment: IL-17A/A HEK-Blue Cell Assay; assay type: cell-based; conditions: IL-17A/A stimulation, 20 hours, SEAP readout
T2 sequence (Q16552 24-155): T1 sequence (Q16552 24-155)
Description: as §1, with “IL-17A/A” for “IL-17A/F”, “IL-17R^A,” for “IL-17RA,”, “protein.” for “geneprotein.”
as §2, with “in DMSO, with a top final compound concentration of 10 uM” for “in DMSO”, “IL-17A/A (Genscript #Z03228).” for “IL-17A/A (Custom from R&D systems, untagged IL-17A/F+BSA as a carrier protein).”, “background. IL-17A/A inhibition data is provided in Table 1 for selected compounds.” for “background.”

[3] = HEK-Blue IL-17 reporter cells, read-out: IL17 AA HEK-5 pIC50 (converted)

| Structure (SMILES) | IL17AF HEK Blue pIC50 [1] | IC50 [2, 3] [nM] | IC50 [1] [nM] | IC50 ([2]; IL17 AA HEK-5 pIC50, HEK-Blue IL-17 reporter cells) [nM] | IL17 AA HEK-5 pIC50 ([2]; HEK-Blue IL-17 reporter cells) |
| --- | --- | --- | --- | --- | --- |
| CCOC(C)C(=O)N[C@@H](C(=O)N1CCN(C)[C@H](C)C1)[C@@H](C)c1ccc(NC(=O)[C@@H](NC(=O)C2(F)CC2)C(C2CC2)C2CC2)c(F)c1 (single isomer, unassigned) [Compound 322] | C (7>C≥5) | < 10 | – | – | – |
| CCC(=O)N[C@@H](C(=O)N1CCN(C)CC1)[C@@H](C)c1ccc(NC(=O)[C@@H](NC(=O)c2ccnn2CC)C(C2CC2)C2CC2)c(F)c1 [Compound 200] | – | 10 to 100 | 10 to 100 | – | – |
| CCn1nccc1C(=O)N[C@H](C(=O)Nc1ccc([C@H](C)[C@@H](NC(=O)[C@H](C)OC)C(=O)N2C[C@H]3C[C@@H](C2)N3C)cc1F)C(C1CC1)C1CC1 [Compound 307] | – | 10 to 100 | 100 to 10000 | – | – |
| CCc1nonc1C(=O)N[C@H](C(=O)Nc1ccc([C@H](C)[C@@H](NC(=O)CF)C(=O)N2CCNC(CF)C2)cc1F)C(C1CC1)C1CC1 (single isomer, unassigned) [Compound 302] | – | – | 100 to 10000 | 10 to 100 | – |
| CCC(=O)N[C@@H](C(=O)N1CCNC(CF)C1)[C@@H](C)c1ccc(NC(=O)[C@@H](NC(=O)c2nonc2CC)C(C2CC2)C2CC2)c(F)c1 (single isomer, unassigned) [Compound 304] | – | < 10 | 100 to 10000 | – | – |
| CCn1nccc1C(=O)N[C@H](C(=O)Nc1ccc(C(C(NC(=O)[C@H](C)OC)C(=O)N2CCN(C)[C@H](C)C2)C(F)(F)F)cc1F)C(C1CC1)C1CC1 (single isomer, unassigned) [Compound 351] | – | 100 to 10000 | 100 to 10000 | – | – |
| CCn1nccc1C(=O)N[C@H](C(=O)Nc1ccc([C@H](C)[C@@H](NC(=O)C(C)CC(F)(F)F)C(=O)N2CCN(C)CC2)cc1F)C(C1CC1)C1CC1 (single isomer, unassigned) [Compound 332] | – | – | 10 to 100 | – | B (8>B≥7 as B) |
| CCOC(C)C(=O)N[C@@H](C(=O)N1CCN(C)[C@H](C)C1)[C@@H](C)c1ccc(NC(=O)[C@@H](NC(=O)C2(F)CC2)C(C2CC2)C2CC2)c(F)c1 (single isomer, unassigned) [Compound 321] | – | 10 to 100 | 100 to 10000 | – | – |
| CCC(=O)N[C@@H](C(=O)N1CCC[C@H](N)C1)[C@@H](C)c1ccc(NC(=O)[C@@H](NC(=O)c2ccnn2CC)C(C2CC2)C2CC2)c(F)c1 [Compound 267] | – | 10 to 100 | 100 to 10000 | – | – |
| CO[C@@H](C)C(=O)N[C@@H](C(=O)N1CCN(C)C[C@@H]1C)[C@@H](C)c1ccc(NC(=O)[C@@H](NC(=O)C2(F)CC2)C(C2CC2)C2CC2)c(F)c1 [Compound 285] | – | 10 to 100 | 100 to 10000 | – | – |
| CCn1nccc1C(=O)N[C@H](C(=O)Nc1ccc([C@H](C)[C@@H](NC(=O)[C@H](C)Nc2ncccn2)C(=O)N2CCN(C)[C@H](C)C2)cc1F)C(C1CC1)C1CC1 [Compound 306] | – | < 10 | < 10 | – | – |
| CCOCCN(C)C(=O)N[C@@H](C(=O)N1CCN(C)[C@H](C)C1)[C@@H](C)c1ccc(NC(=O)[C@@H](NC(=O)c2ccnn2CC)C(C2CC2)C2CC2)c(F)c1 [Compound 313] | – | 10 to 100 | 100 to 10000 | – | – |
| CCC(=O)NC(C(=O)N1CCN(C)CC1)C(c1ccc(NC(=O)[C@@H](NC(=O)c2ccnn2CC)C(C2CC2)C2CC2)c(F)c1)C(F)(F)F (single isomer, unassigned) [Compound 350] | – | 100 to 10000 | 100 to 10000 | – | – |
| CCC(=O)N[C@@H](C(=O)N1CCN(C)[C@H](C)C1)[C@@H](C)c1ccc(NC(=O)[C@@H](NC(=O)c2ccnn2C)C(C2CC2)C2CC2)c(F)c1 [Compound 297] | – | < 10 | 10 to 100 | – | – |
| CCn1nccc1C(=O)N[C@H](C(=O)Nc1ccc([C@H](C)[C@@H](NC(=O)COC)C(=O)N2C[C@@H](C)N(C)C[C@H]2C)cc1F)C(C1CC1)C1CC1 [Compound 286] | – | < 10 | 10 to 100 | – | – |
| CCC(OC)C(=O)N[C@@H](C(=O)N1CCN(C)CC1)[C@@H](C)c1ccc(NC(=O)[C@@H](NC(=O)c2ccnn2CC)C(C2CC2)C2CC2)c(F)c1 (single isomer, unassigned) [Compound 340] | – | < 10 | 10 to 100 | – | – |

| Structure (SMILES) | IL17AF HEK Blue pIC50 [1] | IC50 [2, 3] [nM] | IC50 [1] [nM] | IC50 ([2]; IL17 AA HEK-5 pIC50, HEK-Blue IL-17 reporter cells) [nM] | IL17 AA HEK-5 pIC50 ([2]; HEK-Blue IL-17 reporter cells) |
| --- | --- | --- | --- | --- | --- |
| CCn1nccc1C(=O)N[C@H](C(=O)Nc1ccc([C@H](C)[C@@H](NC(=O)COC)C(=O)N2C[C@@H](C)N(C)[C@@H](C)C2)cc1F)C(C1CC1)C1CC1 [Compound 293] | – | < 10 | 10 to 100 | – | – |
| CCOC(=O)N1CCC[C@H]1C(=O)N[C@@H](C(=O)N1CCN(C)[C@H](C)C1)[C@@H](C)c1ccc(NC(=O)[C@@H](NC(=O)C2(F)CC2)C(C2CC2)C2CC2)c(F)c1 [Compound 279] | – | < 10 | 100 to 10000 | – | – |
| CO[C@@H](C)C(=O)N[C@@H](C(=O)N1C[C@@H](C)N(C)C[C@H]1C)[C@@H](C)c1ccc(NC(=O)[C@@H](NC(=O)C2(F)CC2)C(C2CC2)C2CC2)c(F)c1 [Compound 290] | – | < 10 | 100 to 10000 | – | – |
| CCn1nccc1C(=O)N[C@H](C(=O)Nc1ccc([C@H](C)[C@@H](NC(=O)[C@H](C)OC)C(=O)N2CCN(C)C(CF)C2)cc1F)C(C1CC1)C1CC1 (single isomer, unassigned) [Compound 299] | – | < 10 | 10 to 100 | – | – |
| CCC(OC)C(=O)N[C@@H](C(=O)N1CCN(C)[C@H](C)C1)[C@@H](C)c1ccc(NC(=O)[C@@H](NC(=O)C2(F)CC2)C(C2CC2)C2CC2)c(F)c1 (single isomer, unassigned) [Compound 336] | – | 10 to 100 | 100 to 10000 | – | – |
| CCn1nccc1C(=O)N[C@H](C(=O)Nc1ccc([C@H](C)[C@@H](NC(=O)C(C2CC2)C2CC2)C(=O)N2CCN(C)CC2)cc1F)C(C1CC1)C1CC1 [Compound 330] | – | < 10 | 10 to 100 | – | – |
| COCC(=O)N[C@@H](C(=O)N1C[C@@H](C)N(C)C[C@H]1C)[C@@H](C)c1ccc(NC(=O)[C@@H](NC(=O)C2(F)CC2)C(C2CC2)C2CC2)c(F)c1 [Compound 289] | – | < 10 | 100 to 10000 | – | – |
| CCOC(=O)N1CC[C@H]1C(=O)N[C@@H](C(=O)N1CCN(C)[C@H](C)C1)[C@@H](C)c1ccc(NC(=O)[C@@H](NC(=O)C2(F)CC2)C(C2CC2)C2CC2)c(F)c1 [Compound 275] | – | < 10 | 100 to 10000 | – | – |
| CCC(=O)N[C@@H](C(=O)N1C[C@@H](C)N(C)C[C@H]1C)[C@@H](C)c1ccc(NC(=O)[C@@H](NC(=O)C2(F)CC2)C(C2CC2)C2CC2)c(F)c1 [Compound 288] | – | < 10 | 100 to 10000 | – | – |
| CO[C@@H](C)C(=O)N[C@@H](C(=O)N1CCNC(CF)C1)[C@@H](C)c1ccc(NC(=O)[C@@H](NC(=O)C2(F)CC2)C(C2CC2)C2CC2)c(F)c1 (single isomer, unassigned) [Compound 301] | – | 10 to 100 | 100 to 10000 | – | – |
| CCn1nccc1C(=O)N[C@H](C(=O)Nc1ccc([C@H](C)[C@@H](NC(=O)C(C)C2CC2)C(=O)N2CCN(C)[C@H](C)C2)cc1F)C(C1CC1)C1CC1 (single isomer, unassigned) [Compound 310] | – | – | 10 to 100 | – | A (pIC50 of greater than or equal 8 as A) |
| CCC(OC)C(=O)N[C@@H](C(=O)N1CCN(C)CC1)[C@@H](C)c1ccc(NC(=O)[C@@H](NC(=O)c2ccnn2CC)C(C2CC2)C2CC2)c(F)c1 (single isomer, unassigned) [Compound 339] | – | 10 to 100 | 100 to 10000 | – | – |
| CCn1nccc1C(=O)N[C@H](C(=O)Nc1ccc([C@H](C)[C@@H](NC(=O)C(C2CC2)C2CC2)C(=O)N2CCN(C)[C@H](C)C2)cc1F)C(C1CC1)C1CC1 [Compound 319] | – | < 10 | 10 to 100 | – | – |
| COCC(=O)N[C@@H](C(=O)N1CCN(C)CC1)[C@@H](C)c1ccc(NC(=O)[C@@H](NC(=O)c2nonc2C)C(C2CC2)C2CC2)c(F)c1 [Compound 346] | – | 10 to 100 | 100 to 10000 | – | – |
| CCn1nccc1C(=O)N[C@H](C(=O)Nc1ccc([C@H](C)[C@@H](NC(=O)[C@H](C)OC)C(=O)N2CCN(C)CC2)cc1F)C(C1CC1)C1CC1 [Compound 222] | – | < 10 | 10 to 100 | – | – |
